Where two headings read alike, the source gives them in different places.

Among the data in patent publication US10344017B2, “Pyrrolcarboxamide derivatives for the inhibition of ERK5” (CANCER RESEARCH TECHNOLOGY LIMITED, priority 2014, dated 2019) are IC50 values, retold here.

One assay deals with T1, ERK5 (Homo sapiens, UniProt Q13164).
T1 construct: made in house
Kind of assay: ERK5 IMAP assay (fluorescence polarisation). The format is biochemical. Background: In fluorescence polarisation assays a small probe gives low polarisation when free and higher when bound to something large.

The subject of assay [1] is ERK5 (HA-ERK5 wt activated by EGFP-MEK5D, MEF2D-Gal4/Gal4-Luc reporter) in HEK293 cells. Kind of assay: Dual-luciferase reporter assay (ERK5 reporter), reverse-transfected HEK293 cells. As to conditions: Homo sapiens, HEK293, read-out: ERK 5 Reporter Assay. (Reporter assays use an easily measured gene product as a stand-in for the process of interest.)
Experimental: Dual-Luciferase Reporter Assay
Trypsinizing of Adherent Cell Colonies
Cells were regularly passaged in order to maintain optimum colony sizes on plates. In order to do this, and to harvest cells for use in the dual-luciferase reporter assay, adherent cells were lifted from tissue culture dishes. Cell media was removed via aspiration, and the cell monolayer was washed with phosphate buffered saline (PBS) solution (10 mL), which was then aspirated.
Reverse Transfection of HEK293 Cells
Preparation of EGFP Control (C3) Working Solution (for 1×96 Well Plate)
Preparation of HEK293 Cells for Reverse Transfection
Trypsinized HEK293 cells were re-suspended in 19 mL of fresh cell media and counted using haemocytometry. Cells were then diluted with fresh cell media to achieve a final cell concentration of 2×10^5 cells/mL. 1237.5 μL and 7425 μL of this cell media was added to the C3 and 5D working solutions respectively. 100 μL of the transfected cells were then aliquoted into the appropriate wells in a 96-well opaque sided tissue culture plate, and incubated at 37° C. for 6 h.
Addition of Compounds to HEK293 Cells
4 compounds was assayed per 96-well plate. For each compound, 1 mL of growth media was added to eight 1.5 mL Eppendorf® tubes. 6 μL of DMSO was added to two tubes for C3 and blank 5D wells, and 6 μL of the relevant compound stock solution was added to the 6 remaining tubes. […] Solutions of drug in media were thoroughly mixed, and 100 μL of the relevant compound was transferred (in triplicate) to the 96-well plate containing transfected HEK293 cells using an electronic multichannel pipette with variable tip spacing. Sealed plates were incubated at 37° C. for 24 h. Final compound concentrations were as follows; 30 μM, 10 μM, 3 μM, 1 μM and 0.3 μM.
15 mL of 1× passive lysis buffer (PLB) was prepared using 5×PLB (Dual-Luciferase Reporter Assay System, Promega® E1960), diluting with H2O. Assay plates prepared were removed from the incubator and the growth media removed by aspiration.
The mark [2] stands for this setting: average (e.g. geometric mean) where more than one data point, read-out: ERK5 IC50.

T1 sequence (Q13164 whole entry): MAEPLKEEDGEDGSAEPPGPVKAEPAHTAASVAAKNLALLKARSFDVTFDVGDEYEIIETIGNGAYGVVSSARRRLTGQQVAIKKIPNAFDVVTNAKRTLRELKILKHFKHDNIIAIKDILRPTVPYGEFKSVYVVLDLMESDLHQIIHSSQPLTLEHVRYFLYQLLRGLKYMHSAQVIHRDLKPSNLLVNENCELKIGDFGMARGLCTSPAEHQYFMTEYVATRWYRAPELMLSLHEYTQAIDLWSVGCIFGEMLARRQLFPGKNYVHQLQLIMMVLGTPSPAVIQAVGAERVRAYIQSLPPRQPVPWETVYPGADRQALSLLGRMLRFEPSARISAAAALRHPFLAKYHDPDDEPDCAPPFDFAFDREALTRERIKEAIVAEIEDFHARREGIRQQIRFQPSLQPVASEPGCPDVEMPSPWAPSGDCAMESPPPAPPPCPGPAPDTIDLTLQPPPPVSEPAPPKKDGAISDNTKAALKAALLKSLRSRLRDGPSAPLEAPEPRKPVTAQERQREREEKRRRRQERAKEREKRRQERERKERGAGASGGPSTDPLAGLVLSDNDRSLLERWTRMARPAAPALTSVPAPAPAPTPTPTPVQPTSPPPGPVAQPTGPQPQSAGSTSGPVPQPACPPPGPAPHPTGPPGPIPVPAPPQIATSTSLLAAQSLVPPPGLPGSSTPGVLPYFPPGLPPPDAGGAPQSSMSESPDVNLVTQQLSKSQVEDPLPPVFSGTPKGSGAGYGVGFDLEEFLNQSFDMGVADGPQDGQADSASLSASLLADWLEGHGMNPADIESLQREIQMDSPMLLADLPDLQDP

Take `O=C(NC1CCNCC1)c1cc(C(=O)c2c(F)cccc2Cl)c[nH]1` [Example 3, 4-(2-Chloro-6-fluorobenzoyl)-N-(piperidin-4-yl)-1H-pyrrole-2-carboxamide]: the values for the IC50 (at ERK5 (setting [2]); in assay [1]) were 487 nM and 3500 nM, respectively. Consider `O=C(NC1CCNCC1)c1cc(C(=O)c2c(Cl)ccc(Cl)c2F)c[nH]1` [Example 4, 4-(3,6-Dichloro-2-fluorobenzoyl)-N-(piperidin-4-yl)-1H-pyrrole-2-carboxamide], for which the IC50 in assay [1] amounted to 2340 nM. In the case of `CC(=O)N1CCC(NC(=O)c2cc(C(=O)c3c(Cl)ccc(Cl)c3F)c[nH]2)CC1` [Example 7, N-(1-Acetylpiperidin-4-yl)-4-(3,6-dichloro-2-fluorobenzoyl)-1H-pyrrole-2-carboxamide], the results for the IC50 (at ERK5 (setting [2]); in assay [1]) were 87.8 nM and 968 nM, respectively. For the compound `CS(=O)(=O)N1CCC(NC(=O)c2cc(C(=O)c3c(Cl)ccc(Cl)c3F)c[nH]2)CC1` [Example 9, 4-(3,6-Dichloro-2-fluorobenzoyl)-N-(1-(methylsulfonyl)piperidin-4-yl)-1H-pyrrole-2-carboxamide], the IC50 came to 144 nM at ERK5 (setting [2]) and 826 nM in assay [1]. On to `CN1CCN(c2ccc(NC(=O)c3cc(C(=O)c4c(F)cccc4Cl)c[nH]3)cn2)CC1` [Example 31, 4-(2-Chloro-6-fluorobenzoyl)-N-(6-(4-methylpiperazin-1-yl)pyridin-3-yl)-1H-pyrrole-2-carboxamide], for which the values for the IC50 (at ERK5 (setting [2]); in assay [1]) were 91.5 nM and 1180 nM, respectively. As for `O=C(Nc1cnn(C2CCNCC2)c1)c1cc(C(=O)c2c(F)cccc2Cl)c[nH]1` [Example 52, 4-(2-Chloro-6-fluorobenzoyl)-N-(1-(piperidin-4-yl)-1H-pyrazol-4-yl)-1H-pyrrole-2-carboxamide], the IC50 was determined as 123 nM at ERK5 (setting [2]) and 8810 nM in assay [1]. With `O=C(Nc1cccnc1)c1cc(C(=O)c2c(F)cccc2F)c[nH]1` [Example 122, 4-(2,6-Difluorobenzoyl)-N-(pyridin-3-yl)-1H-pyrrole-2-carboxamide], the IC50 at ERK5 turned out to be 1120 nM; in assay [1] it was 26000 nM.

Turning to `CC(C)(C)OC(=O)N1CCC(NC(=O)c2cc(C(=O)c3c(F)cccc3F)c[nH]2)CC1` [Example 123, tert-Butyl 4-(4-(2,6-difluorobenzoyl)-1H-pyrrole-2-carboxamido)piperidine-1-carboxylate], the values for the IC50 (at ERK5 (setting [2]); in assay [1]) were 2860 nM and 25000 nM, respectively. For the compound `O=C(NC1CCOCC1)c1cc(C(=O)c2c(F)cccc2F)c[nH]1` [Example 124, 4-(2,6-Difluorobenzoyl)-N-(tetrahydro-2H-pyran-4-yl)-1H-pyrrole-2-carboxamide], the IC50 is 2250 nM at ERK5 (setting [2]) and 23300 nM in assay [1].

`O=C(NC1CCNCC1)c1cc(C(=O)c2c(F)cccc2F)c[nH]1` [Example 126, 4-(2,6-Difluorobenzoyl)-N-(piperidin-4-yl)-1H-pyrrole-2-carboxamide]: the IC50 at ERK5 (setting [2]) is 1260 nM; in assay [1] it was 18300 nM. As for `CN1CCC(NC(=O)c2cc(C(=O)c3c(F)cccc3F)c[nH]2)CC1` [Example 129, 4-(2,6-Difluorobenzoyl)-N-(1-methylpiperidin-4-yl)-1H-pyrrole-2-carboxamide], the IC50 at ERK5 (setting [2]) is 1130 nM; in assay [1], 6000 nM. On to `O=C(Nc1cccnc1)c1cc(C(=O)c2cccc(Cl)c2Cl)c[nH]1` [Example 159, 4-(2,3-Dichlorobenzoyl)-N-(pyridin-3-yl)-1H-pyrrole-2-carboxamide], for which the IC50 on ERK5 (setting [2]) was determined as 1490 nM; in assay [1] it was 24000 nM. The like results for `O=C(NC1CCNCC1)c1cc(C(=O)c2cccc(Cl)c2Cl)c[nH]1` [Example 160, 4-(2,3-Dichlorobenzoyl)-N-(piperidin-4-yl)-1H-pyrrole-2-carboxamide] were, in that order, 1710 nM and 30000 nM. The like results for `O=C(NC1CCNCC1)c1cc(C(=O)c2c(F)cccc2C(F)(F)F)c[nH]1` [Example 161, 4-(2-Fluoro-6-(trifluoromethyl)benzoyl)-N-(piperidin-4-yl)-1H-pyrrole-2-carboxamide] were, in that order, 2410 nM and 16700 nM. The like results for `O=C(Nc1cncnc1)c1cc(C(=O)c2c(Cl)ccc(Cl)c2F)c[nH]1` [Example 173, 4-(3,6-Dichloro-2-fluorobenzoyl)-N-(pyrimidin-5-yl)-1H-pyrrole-2-carboxamide] were, in that order, 316 nM and 508 nM. In the case of `O=C(Nc1ccncc1)c1cc(C(=O)c2c(F)cccc2C(F)(F)F)c[nH]1` [Example 183, 4-(2-Fluoro-6-(trifluoromethyl)benzoyl)-N-(pyridin-4-yl)-1H-pyrrole-2-carboxamide], the IC50 was determined as 1880 nM on ERK5 (setting [2]) and 7670 nM in assay [1].

On to `O=C(Nc1cccnc1)c1cc(C(=O)c2c(F)cccc2C(F)(F)F)c[nH]1` [Example 184, 4-(2-Fluoro-6-(trifluoromethyl)benzoyl)-N-(pyridin-3-yl)-1H-pyrrole-2-carboxamide], for which the IC50 on ERK5 (setting [2]) came out at 5680 nM; in assay [1] it was 10300 nM. For `O=C(Nc1ccncc1)c1cc(C(=O)c2c(F)cccc2Cl)c[nH]1` [Example 187, 4-(2-Chloro-6-fluorobenzoyl)-N-(pyridin-4-yl)-1H-pyrrole-2-carboxamide], the IC50 on ERK5 came out at 602 nM; in assay [1] it was 2330 nM.

In the case of `COCCOc1ccc(Cl)c(C(=O)c2c[nH]c(C(=O)Nc3cnn(C)c3)c2)c1F` [Example 260, 4-(6-Chloro-2-fluoro-3-(2-methoxyethoxy)benzoyl)-N-(1-methyl-1H-pyrazol-4-yl)-1H-pyrrole-2-carboxamide], the IC50 at ERK5 (setting [2]) turned out to be 1190 nM.

With `Cn1cc(NC(=O)c2cc(C(=O)c3c(Cl)ccc(OC4CCOC4)c3F)c[nH]2)cn1` (stereo not drawn) [Example 261, 4-(6-Chloro-2-fluoro-3-((tetrahydrofuran-3-yl)oxy)benzoyl)-N-(1-methyl-1H-pyrazol-4-yl)-1H-pyrrole-2-carboxamide], the IC50 on ERK5 (setting [2]) was determined as 553 nM. As to `CS(=O)(=O)CCNc1ccc(NC(=O)c2cc(C(=O)c3c(Cl)ccc(Cl)c3F)c[nH]2)cn1` [Example 263, 4-(3,6-Dichloro-2-fluorobenzoyl)-N-(6-((2-(methylsulfonyl)ethyl)amino)pyridin-3-yl)-1H-pyrrole-2-carboxamide], on ERK5 (setting [2]), the IC50 came out at 211 nM.

For the compound `O=Cc1ccc(F)c(C(=O)c2c[nH]c(C(=O)Nc3cccnc3)c2)c1F` [Example 265, 4-(2,6-difluoro-3-formylbenzoyl)-N-(pyridin-3-yl)-1H-pyrrole-2-carboxamide], on ERK5 (setting [2]), the IC50 is 7450 nM. For the compound `O=C(Nc1cccnc1)c1cc(C(=O)c2c(F)ccc(C(=O)O)c2F)c[nH]1` [Example 266, 2,4-difluoro-3-(5-(pyridin-3-ylcarbamoyl)-1H-pyrrole-3-carbonyl) benzoic Acid], the IC50 at ERK5 (setting [2]) was 1930 nM. For `O=C(Nc1cccnc1)c1cc(C(=O)c2c(Cl)ccc(OC3CCOCC3)c2F)c[nH]1` [Example 267, 4-(6-Chloro-2-fluoro-3-((tetrahydro-2H-pyran-4-yl)oxy)benzoyl)-N-(pyridin-3-yl)-1H-pyrrole-2-carboxamide], the IC50 on ERK5 (setting [2]) was 1740 nM. On to `Cn1cc(NC(=O)c2cc(C(=O)c3c(Cl)ccc(OC4CCOCC4)c3F)c[nH]2)cn1` [Example 268, 4-(6-Chloro-2-fluoro-3-((tetrahydro-2H-pyran-4-yl)oxy)benzoyl)-N-(1-methyl-1H-pyrazol-4-yl)-1H-pyrrole-2-carboxamide], for which the IC50 at ERK5 (setting [2]) is 2800 nM. Consider `Cn1cc(NC(=O)c2cc(C(=O)c3c(F)cccc3Cl)c[nH]2)cn1` [Example 269, 4-(2-Chloro-6-fluorobenzoyl)-N-(1-methyl-1H-pyrazol-4-yl)-1H-pyrrole-2-carboxamide], for which the IC50 on ERK5 (setting [2]) was determined as 777 nM.

`O=C(Nc1cccnc1)c1cc(C(=O)c2c(Cl)ccc(OC(CO)CCl)c2F)c[nH]1` (stereo not drawn) [Example 270, 4-(6-Chloro-3-((1-chloro-3-hydroxypropan-2-yl)oxy)-2-fluorobenzoyl)-N-(pyridin-3-yl)-1H-pyrrole-2-carboxamide]: the IC50 at ERK5 (setting [2]) was 458 nM. On to `O=C(Nc1cccnc1)c1cc(C(=O)c2c(Cl)ccc(OC(CCl)CCl)c2F)c[nH]1` [Example 271, 4-(6-Chloro-3-((1,3-dichloropropan-2-yl)oxy)-2-fluorobenzoyl)-N-(pyridin-3-yl)-1H-pyrrole-2-carboxamide], for which the IC50 at ERK5 (setting [2]) was 1260 nM. In the case of `O=C(Nc1cccnc1)c1cc(C(=O)c2c(Cl)ccc(OC3COC3)c2F)c[nH]1` [Example 272, 4-(6-Chloro-2-fluoro-3-(oxetan-3-yloxy)beruoyl)-N-(pyridin-3-yl)-1H-pyrrole-2-carboxamide], the IC50 on ERK5 (setting [2]) was found to be 73 nM.

With `Cn1cc(NC(=O)c2cc(C(=O)c3c(Cl)ccc(OC4COC4)c3F)c[nH]2)cn1` [Example 273, 4-(6-Chloro-2-fluoro-3-(oxetan-3-yloxy)benzoyl)-N-(1-methyl-1H-pyrazol-4-yl)-1H-pyrrole-2-carboxamide], on ERK5 (setting [2]), the IC50 was 58.3 nM. Consider `CNCc1ccc(F)c(C(=O)c2c[nH]c(C(=O)Nc3cccnc3)c2)c1F` [Example 274, 4-(2,6-difluoro-3-((methylamino)methyl)benzoyl)-N-(pyridin-3-yl)-1H-pyrrole-2-carboxamide], for which the IC50 at ERK5 (setting [2]) worked out at 3640 nM. For the compound `O=C(Nc1ccc(OC2COC2)nc1)c1cc(C(=O)c2c(Cl)ccc(Cl)c2F)c[nH]1` [Example 279, 4-(3,6-Dichloro-2-fluorobenzoyl)-N-(6-(oxetan-3-yloxy)pyridin-3-yl)-1H-pyrrole-2-carboxamide], the IC50 on ERK5 (setting [2]) worked out at 874 nM. As for `O=C(Nc1ccc(OCCO)nc1)c1cc(C(=O)c2c(Cl)ccc(Cl)c2F)c[nH]1` [Example 281, 4-(3,6-Dichloro-2-fluorobenzoyl)-N-(6-(2-hydroxyethoxy)pyridin-3-yl)-1H-pyrrole-2-carboxamide], the IC50 at ERK5 (setting [2]) was 390 nM. With `COCCN(CCOC)Cc1ccc(NC(=O)c2cc(C(=O)c3c(Cl)ccc(Cl)c3F)c[nH]2)cn1` [Example 283, N-(6-((bis(2-methoxyethyl)amino)methyl)pyridin-3-yl)-4-(3,6-dichloro-2-fluorobenzoyl)-1H-pyrrole-2-carboxamide], at ERK5 (setting [2]), the IC50 amounted to 117 nM.
